Assay results as given in patent US11028058B2, “Heterocyclic compounds as adenosine antagonists” (NUVATION BIO INC., priority 2017, dated 2021).
Read-outs that look alike come from different tables or passages of the source.

How the values were obtained:
[1] = target: HEK-293 cells expressing human recombinant adenosine A2A receptor (Homo sapiens (Human), UniProt P29274); assay: cAMP assay, Assay 2 (Eu-cAMP tracer / ULight-anti-cAMP); assay type: cell-based
Description: The functional activity of compounds was tested using one of the two assays to detect the present of cAMP. Activation of G-protein coupled receptors (such as A2A) results in activation of adenylcyclase which converts ATP into cAMP which is used as a downstream signaling molecule. Therefore, molecules which act as GPCR (or specifically A2A receptor) antagonists cause a decrease in intracellular cAMP concentration.
Both assays used HEK-293 cells expressing human recombinant adenosine A2A receptor were grown prior to the test in media without antibiotic.
Assay 2 (Table B2-2): 100 nL of test articles at 100× of final concentration were transferred to assay plate by Echo. Cells were washed twice with 5 mL of PBS […]. After aspirating the PBS and adding 1.5 mL versine, cells were incubated at 37° C. for 2-5 min. After centrifugation, 4 mL of medium was added and adjusted cell density to 5,000 cells/well with Stimulation Buffer. 10 μL of cells were aliquoted to the assay plate, centrifuged at 1000 rpm for 1 minute, and incubated for 60 minutes at room temperature. 5 μL 4×Eu-cAMP tracer solution and 5 μL 4×Ulight™-anti-cAMP solution were added to assay plate, followed by centrifugation and 60-minute incubation at room temperature. Plates were read on EnVision.

[2] = target: human adenosine A2A membrane preparation (Homo sapiens (Human), UniProt P29274); assay: Adenosine A2A receptor radioligand binding assay (SPA beads, 3H-SCH 58261, 384 plate); conditions: for IC50: Table B1-2; for inhibition at 3 µM: read-out: A2a binding % inh @ 3000 nM
Description: For the A2A adenosine receptor radioligand binding assay, the following modifications were made to the general protocol. GF/C filters (Perkin Elmer, 6005174), presoaked in 0.01% Brij for 2 h at room temperature were used. Filters were washed six times with 0.5 mL of ice-cold washing buffer (50 mM Tris pH 7.4) and 50 μL of Microscint 20 (Packard) was added in each well. The plates were then incubated for 15 min on an orbital shaker and then counted with a TopCount™ for 1 min/well. Another radioligand binding assay was used to evaluate the binding affinity for the adenosine A2A receptor assay was performed in duplicate in the wells of a 384 plate. Assay buffer contained DPBS 500 mM, MgCl2 0.1 mM, and 1% DMSO. Membrane-bead suspension was prepared by mixing 25.98 μL of human adenosine A2A membrane preparation (Perkin Elmer, RBHA2AM400UA) at 33.4 μg/mL, 28 μL of ADA at 20 μg/mL, and 932 μL of SPA beads at 3.33 mg/mL) and incubated the mixture for 20 min at room temperature. Mixed 20 μL of radiotracer (^3H-SCH 58261) at 15 nM to each well containing test articles at various concentrations and centrifuge the plate at 1000 rpm for 1 minute. Added 30 μL of the membraine-bead suspension to each well. Sealed the plates and incubated for 1 hr at room temperature with vigorous mixing on a plate mixer. Plates were read on Microbeta^2 (Perkin Elmer, 2450-0010).

[3] = HEK293, read-out: A2a cAMP % inh @ 100 nM
[4] = HEK293, 100 nM, Assay 2, read-out: A2a cAMP % inh @ 100 nM

Sequence of human adenosine A2A membrane preparation (P29274 whole entry): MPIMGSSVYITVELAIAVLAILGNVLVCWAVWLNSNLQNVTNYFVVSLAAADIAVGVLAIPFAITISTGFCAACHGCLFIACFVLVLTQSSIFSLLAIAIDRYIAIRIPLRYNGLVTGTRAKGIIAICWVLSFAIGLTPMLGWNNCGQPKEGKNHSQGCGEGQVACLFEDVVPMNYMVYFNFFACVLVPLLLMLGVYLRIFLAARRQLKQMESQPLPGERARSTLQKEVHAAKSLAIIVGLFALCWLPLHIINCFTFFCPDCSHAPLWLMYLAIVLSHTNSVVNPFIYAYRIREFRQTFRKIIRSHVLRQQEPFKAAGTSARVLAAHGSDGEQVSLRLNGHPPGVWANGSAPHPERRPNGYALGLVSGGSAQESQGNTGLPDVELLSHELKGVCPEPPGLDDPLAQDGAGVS
Sequence of HEK-293 cells expressing human recombinant adenosine A2A receptor (P29274 whole entry): as above

Compound | IC50 ([1]; Assay 2) | inhibition at 3 µM [2] | further results
Cc1ccn(-c2nc(N)cnc2-c2cc(Cl)c3[nH]ncc3c2)n1 [Compound 1.295, 5-(7-chloro-1H-indazol-5-yl)-6-(3-methyl-1H-pyrazol-1-yl)pyrazin-2-amine] | 33 nM |  | IC50 [2]: 5.5 nM
Cn1ccc(-c2nc(N)cnc2-c2cc(Cl)c3ncccc3c2)n1 [Compound 1.297, 5-(8-chloroquinolin-6-yl)-6-(1-methyl-1H-pyrazol-3-yl)pyrazin-2-amine] | 47.9 nM |  | IC50 [2]: 17 nM
Cn1ccc(-c2nc(N)cnc2-c2cc(Cl)c3[nH]ncc3c2)n1 [Compound 1.304, 5-(7-chloro-1H-indazol-5-yl)-6-(1-methyl-1H-pyrazol-3-yl)pyrazin-2-amine] | 40 nM |  | IC50 [2]: 9 nM
Nc1cnc(-c2cc(Cl)c3ncccc3c2)c(-n2ccc(C(F)(F)F)n2)n1 [Compound 1.306, 5-(8-chloroquinolin-6-yl)-6-(3-(trifluoromethyl)-1H-pyrazol-1-yl)pyrazin-2-amine] | 120 nM |  | 
Nc1cnc(-c2cc(Cl)c3ncccc3c2)c(-c2ccn(C3CC3)n2)n1 [Compound 1.307, 5-(8-chloroquinolin-6-yl)-6-(1-cyclopropyl-1H-pyrazol-3-yl)pyrazin-2-amine] | 8480 nM |  | 
Nc1cnc(-c2cc(Cl)c3ncccc3c2)c(-n2ccccc2=O)n1 [Compound 1.308, 1-(6-amino-3-(8-chloroquinolin-6-yl)pyrazin-2-yl)pyridin-2(1H)-one] | > 10000 nM |  | IC50 [2]: > 10000 nM
Cn1ccc(-c2nc(N)c(C#N)nc2-c2cc(Cl)c3ncccc3c2)n1 [Compound 1.309, 3-amino-6-(8-chloroquinolin-6-yl)-5-(1-methyl-1H-pyrazol-3-yl)pyrazine-2-carbonitrile] | 13.1 nM |  | IC50 [2]: 1.6 nM
Cn1ccc(-c2nc(N)c(O)nc2-c2cc(Cl)c3ncccc3c2)n1 [Compound 1.310, 3-amino-6-(8-chloroquinolin-6-yl)-5-(1-methyl-1H-pyrazol-3-yl)pyrazin-2-ol] | 127 nM |  | 
Cn1ccc(-c2nc(N)c(C(N)=O)nc2-c2cc(Cl)c3ncccc3c2)n1 [Compound 1.311, 3-amino-6-(8-chloroquinolin-6-yl)-5-(1-methyl-1H-pyrazol-3-yl)pyrazine-2-carboxamide] | 279 nM |  | 
COc1nc(-c2cc(Cl)c3ncccc3c2)c(-c2ccn(C)n2)nc1N [Compound 1.312, 5-(8-chloroquinolin-6-yl)-3-methoxy-6-(1-methyl-1H-pyrazol-3-yl)pyrazin-2-amine] | 251 nM |  | 
Cc1ccn(-c2nc(N)c(O)nc2-c2cc(Cl)c3ncccc3c2)n1 [Compound 1.313, 3-amino-6-(8-chloroquinolin-6-yl)-5-(3-methyl-1H-pyrazol-1-yl)pyrazin-2-ol] | 1550 nM |  | 
Cn1ccc(-c2nc(N)cnc2-c2cc(F)c3ncccc3c2)n1 [Compound 1.314, 5-(8-fluoroquinolin-6-yl)-6-(1-methyl-1H-pyrazol-3-yl)pyrazin-2-amine] | 1540 nM |  | 
Cn1ccc(-c2nc(N)cnc2-c2ccc3c(=O)[nH]ccc3c2)n1 [Compound 1.315, 6-(5-amino-3-(1-methyl-1H-pyrazol-3-yl)pyrazin-2-yl)isoquinolin-1-ol] | 1400 nM |  | IC50 [2]: 101 nM
Cc1ccn(-c2nc(N)c(Br)nc2-c2cc(Cl)c3ncccc3c2)n1 [Compound 1.316, 3-bromo-5-(8-chloroquinolin-6-yl)-6-(3-methyl-1H-pyrazol-1-yl)pyrazin-2-amine] | 40.1 nM |  | 
Cc1ccn(-c2nc(N)c(C(N)=O)nc2-c2cc(Cl)c3ncccc3c2)n1 [Compound 1.317, 3-amino-6-(8-chloroquinolin-6-yl)-5-(3-methyl-1H-pyrazol-1-yl)pyrazine-2-carboxamide] | 279 nM |  | 
Cc1ncc(-c2nc(N)cnc2-c2cc(Cl)c3ncccc3c2)s1 [Compound 1.318, 5-(8-chloroquinolin-6-yl)-6-(2-methylthiazol-5-yl)pyrazin-2-amine] | 200 nM |  | IC50 [2]: 9.4 nM
CCn1ccc(-c2nc(N)cnc2-c2cc(Cl)c3ncccc3c2)n1 [Compound 1.319, 5-(8-chloroquinolin-6-yl)-6-(1-ethyl-1H-pyrazol-3-yl)pyrazin-2-amine] | 1930 nM |  | 

Compound | IC50 ([1]; Assay 2) | inhibition at 3 µM [2] | further results
Cn1ccc(-c2nc(N)c(Br)nc2-c2cc(Cl)c3ncccc3c2)n1 [Compound 1.324, 3-bromo-5-(8-chloroquinolin-6-yl)-6-(1-methyl-1H-pyrazol-3-yl)pyrazin-2-amine] | 12.5 nM |  | 
Nc1cnc(-c2ccc3c(=O)[nH]ccc3c2)c(-c2ccccc2)n1 [Compound 1.327, 6-(5-amino-3-phenylpyrazin-2-yl)isoquinolin-1(2H)-one] | 173 nM |  | 
Cn1cccc(-c2nc(N)cnc2-c2cc(Cl)c3ncccc3c2)c1=O [Compound 1.329, 3-(6-amino-3-(8-chloroquinolin-6-yl)pyrazin-2-yl)-1-methylpyridin-2(1H)-one] | > 10000 nM |  | 
Cn1ccc(-c2nc(N)cnc2-c2ccc3[nH]c(=O)ccc3c2)n1 [Compound 1.353, 6-(5-amino-3-(1-methyl-1H-pyrazol-3-yl)pyrazin-2-yl)quinolin-2(1H)-one] | > 10000 nM |  | 
Cc1cnc(-c2nc(N)cnc2-c2cc(Cl)c3ncccc3c2)s1 [Compound 1.395, 5-(8-chloroquinolin-6-yl)-6-(5-methylthiazol-2-yl)pyrazin-2-amine] | 563 nM |  | 
Nc1cnc(-c2ccc3ncccc3c2)c(-c2ccccn2)n1 [Compound No. 1.25, 6-(pyridin-2-yl)-5-(quinolin-6-yl)pyrazin-2-amine] |  | 48% | inhibition at 0.1 µM [1, 3]: 6%
Nc1cnc(-c2ccc3ncoc3c2)c(-c2ccccc2)n1 [Compound No. 1.35, 5-(benzo[d]oxazol-6-yl)-6-phenylpyrazin-2-amine] |  | 64% | inhibition at 0.1 µM [1, 4]: 22%
Nc1cnc(-c2ccc3ncsc3c2)c(-c2ccccc2)n1 [Compound No. 1.36, 5-(benzo[d]thiazol-6-yl)-6-phenylpyrazin-2-amine] |  | 81% | inhibition at 0.1 µM [1, 4]: 77%
Cc1ccc(-c2nc(N)cnc2-c2cc(Cl)c3[nH]cnc3c2)o1 [Compound No. 1.45, 5-(7-chloro-1H-benzimidazol-5-yl)-6-(5-methylfuran-2-yl)pyrazin-2-amine] |  | 91% | inhibition at 0.1 µM [1, 3]: 100%
Nc1cnc(-c2ccc3ccccc3c2)c(-c2ccccc2)n1 [Compound No. 1.185, 5-(naphthalen-2-yl)-6-phenylpyrazin-2-amine] |  | 20% | inhibition at 0.1 µM [1, 4]: 9%
Nc1cnc(-c2ccc3c(c2)CCCN3)c(-c2ccccc2)n1 [Compound No. 1.186, 6-phenyl-5-(1,2,3,4-tetrahydroquinolin-6-yl)pyrazin-2-amine] |  | 30% | inhibition at 0.1 µM [1, 4]: 12%
N#Cc1nc(-c2ccc3ncsc3c2)c(-c2ccccc2)nc1N [Compound No. 1.192, 3-amino-6-(benzo[d]thiazol-6-yl)-5-phenylpyrazine-2-carbonitrile] |  | 89% | inhibition at 0.1 µM [1, 4]: 93%
N#Cc1nc(-c2ccc3ncoc3c2)c(-c2ccccc2)nc1N [Compound No. 1.193, 3-amino-6-(benzo[d]oxazol-6-yl)-5-phenylpyrazine-2-carbonitrile] |  | 83% | inhibition at 0.1 µM [1, 4]: 87%
Cc1ccc(-c2nc(N)cnc2-c2ccc3ncccc3c2)s1 [Compound No. 1.210, 6-(5-methylthiophen-2-yl)-5-(quinolin-6-yl)pyrazin-2-amine] |  | 100% | inhibition at 0.1 µM [1, 4]: 100%
Nc1nc(-c2ccccc2)c(-c2ccc3ncccc3c2)nc1C(=O)O [Compound No. 1.238, 3-amino-5-phenyl-6-(quinolin-6-yl) pyrazine-2-carboxylic acid] |  | 11% | inhibition at 0.1 µM [1, 4]: 7%
Nc1nc(-c2ccccc2)c(-c2ccc3ncccc3c2)nc1O [Compound No. 1.241, 3-amino-5-phenyl-6-(quinolin-6-yl)pyrazin-2-ol] |  | 86% | inhibition at 0.1 µM [1, 4]: 80%
Nc1cnc(-c2ccc3[nH]ncc3c2)c(-c2ccccc2)n1 [Compound No. 1.270, 5-(1H-indazol-5-yl)-6-phenylpyrazin-2-amine] |  | 100% | inhibition at 0.1 µM [1, 4]: 100%
